Two molecules from US20110044907A1, “IN VIVO SCREENING ASSAYS” (priority 2009, published 2011) can be followed below.

The subject of test [1] is BxPC-3-GFP tumor cells. Description: Surgical orthotopic implantation of BxPC-3-GFP pancreatic tumor cells in nude mice. It counts as in vivo, mouse. The note with it: female NCr nu/nu mice; AB0023 30 mg/kg IP twice per week 6 weeks; Gemzar 200 mg/kg IP once per week 3 weeks. How it is done:
Tumor formation and metastasis are monitored by fluorescence imaging.
Approximately 75 female nude mice (NCr nu/nu), 5-6 weeks old, are anesthetized by intraperitoneal injection of a solution of 100 mg/kg ketamine and 5 mg/kg xylazine. Under anesthesia, BxPC-3-GFP tumor cells are surgically implanted, by suturing into the pancreas. […] Each group contains 15 animals, and all administrations are intraperitoneal.
Body weight is determined once per week.
At the conclusion of the study, blood is collected by cardiac puncture and one ml is used for preparation of serum.
The other half is snap frozen for RNA isolation.

The test system of test [2] is MDA-MB-231-luc-D3H2LN cells. Briefly: Breast tumor metastasis model, intracardiac injection, bioluminescent imaging. It counts as in vivo, mouse. As to conditions: AB0023 30 mg/kg IP twice per week; taxol 5 mg/kg daily. How it is done:
In this model system, MDA-MB-231-luc-D3H2LN cells (Caliper Life Sciences, Hopkinton, Mass.), a derivative of a human breast cancer cell line that has been stably transfected with a luciferase gene were introduced into female nude mice by intracardiac injection. The cells are disseminated through the circulation, and the occurrence and location of metastases are determined by in vivo bioluminescent imaging (BLI).
Approximately 80 female nude mice (NCr nu/nu), 8-10 weeks old, were anesthetized by intraperitoneal injection of a solution of 100 mg/kg ketamine and 5 mg/kg xylazine. […] Bioluminescence from whole body and lung projection was measured and expressed as photons per second. If the ratio of whole body luminescence to lung luminescence was less than 3, the mouse was excluded from the study. […]
Ventral and dorsal views of the animals were obtained by in vivo bioluminescent imaging (BLI) on days 0, 7, 10, 13, 16, 21, 24 AND 28; using the IVIS®-Spectrum imaging system (Caliper Life Sciences, Hopkinton, Mass.). Data were analyzed using Living Image 3.0 Software (Caliper Life Sciences, Hopkinton, Mass.).
Body weight was measured once per week for the first two weeks of the study, then three times per week until the conclusion of the study. […]

Counter-ions that a name gives are not always drawn.

Regarding `Nc1ccn([C@@H]2O[C@H](CO)[C@@H](O)C2(F)F)c(=O)n1` [Gemzar, gemcitabine-HCl], the mean tumor volume entry in test [1] is recorded as “reduced”.

Consider `CC(=O)O[C@H]1C(=O)[C@@]2(C)[C@H]([C@H](OC(=O)c3ccccc3)[C@]3(O)C[C@H](OC(=O)[C@H](O)[C@@H](NC(=O)c4ccccc4)c4ccccc4)C(C)=C1C3(C)C)[C@]1(OC(C)=O)CO[C@@H]1C[C@@H]2O` [taxol], for which the “survival advantage compared to vehicle-treated animals” value in test [2] is given as “not observed”.
